Measurements reported in patent US20150296790A1, “SILICON-CONTAINING COMPOUND AQUEOUS SOLUTION AND ANTIBACTERIAL/ANTIVIRAL AGENT INCLUDING SAID SOLUTION” (JEX CO., LTD., priority 2012, published 2015).
Values belong to the compound of their own block, whether it stands above or below them.

Assay: Solubility of CD (clarity and stability, visual)
Type: physicochemical
Design: key to Solubility of CD: Stability: OK: When the aqueous CD solution did not exhibit the conditions such as presence of precipitates and deposits, the solution was considered as stable; NG: When the aqueous CD solution exhibited the conditions such as presence of precipitates and deposits, the solution was not considered as stable; key to Solubility of CD: Clarity: When the CD aqueous solution was clear, the solution was rated as “OK”; When the solution was not clear, the solution was rated as “NG”
Protocol: “Clarity” in “Solubility of CD” in the tables was determined by sequentially adding the CD and purified water at the respective ratio to a predetermined screw-cap bottle and stirring the mixture in the sealed bottle on a shaker to prepare the respective aqueous CD solution, which was then visually evaluated for clarity immediately after the preparation. When the CD aqueous solution was clear, the solution was rated as “OK”. When the solution was not clear, the solution was rated as “NG”. “Stability” in “Solubility of CD” in the tables was determined by allowing the respective aqueous CD solution after preparation to stand at ambient temperature for a predetermined period and then visually evaluating the conditions (such as presence of precipitates and deposits) of the solution.

[1] = Ratio of CD Alone 1 w/w % in purified water
[2] = Ratio of CD Alone 2-10 w/w % in purified water
[3] = Ratio of CD Alone 2-6 w/w % in purified water
[4] = Ratio of CD Alone 7 w/w % in purified water
[5] = Ratio of CD Alone 8-10 w/w % in purified water
[6] = Ratio of CD Alone 2 w/w % in purified water
[7] = Ratio of CD Alone 3 w/w % in purified water
[8] = Ratio of CD Alone 4-5 w/w % in purified water
[9] = Ratio of CD Alone 6 w/w % in purified water
[10] = Ratio of CD Alone 7-9 w/w % in purified water
[11] = Ratio of CD Alone 10 w/w % in purified water
[12] = Ratio of CD Alone 15 w/w % in purified water
[13] = Ratio of CD Alone 20 w/w % in purified water
[14] = Ratio of CD Alone 25 w/w % in purified water

Solubility of CD: Clarity [1]: OK
Solubility of CD: Stability [1]: OK
Solubility of CD: Clarity [2]: NG
Solubility of CD: Stability [2]: NG
Structure (SMILES): OC[C@H]1O[C@@H]2O[C@H]3[C@H](O)[C@@H](O)[C@@H](O[C@H]4[C@H](O)[C@@H](O)[C@@H](O[C@H]5[C@H](O)[C@@H](O)[C@@H](O[C@H]6[C@H](O)[C@@H](O)[C@@H](O[C@H]7[C@H](O)[C@@H](O)[C@@H](O[C@H]8[C@H](O)[C@@H](O)[C@@H](O[C@H]1[C@H](O)[C@H]2O)O[C@@H]8CO)O[C@@H]7CO)O[C@@H]6CO)O[C@@H]5CO)O[C@@H]4CO)O[C@@H]3CO [β, β-cyclodextrin]

Structure (SMILES): OC[C@H]1O[C@@H]2O[C@H]3[C@H](O)[C@@H](O)[C@@H](O[C@H]4[C@H](O)[C@@H](O)[C@@H](O[C@H]5[C@H](O)[C@@H](O)[C@@H](O[C@H]6[C@H](O)[C@@H](O)[C@@H](O[C@H]7[C@H](O)[C@@H](O)[C@@H](O[C@H]1[C@H](O)[C@H]2O)O[C@@H]7CO)O[C@@H]6CO)O[C@@H]5CO)O[C@@H]4CO)O[C@@H]3CO [α, α-cyclodextrin]
Solubility of CD: Clarity [1]: OK
Solubility of CD: Stability [1]: OK
Solubility of CD: Clarity [3]: OK
Solubility of CD: Stability [3]: OK
Solubility of CD: Clarity [4]: OK
Solubility of CD: Stability [4]: OK
Solubility of CD: Clarity [5]: NG
Solubility of CD: Stability [5]: NG

Solubility of CD: Clarity [1]: OK
Solubility of CD: Stability [1]: OK
Solubility of CD: Clarity [6]: OK
Solubility of CD: Stability [6]: OK
Solubility of CD: Clarity [7]: OK
Solubility of CD: Stability [7]: OK
Solubility of CD: Clarity [8]: OK
Solubility of CD: Stability [8]: OK
Solubility of CD: Clarity [9]: OK
Solubility of CD: Stability [9]: OK
Solubility of CD: Clarity [10]: OK
Solubility of CD: Stability [10]: OK
Solubility of CD: Clarity [11]: OK
Solubility of CD: Stability [11]: OK
Solubility of CD: Clarity [12]: NG
Solubility of CD: Stability [12]: OK
Solubility of CD: Clarity [13]: NG
Solubility of CD: Stability [13]: OK
Solubility of CD: Clarity [14]: NG
Solubility of CD: Stability [14]: NG
Structure (SMILES): OC[C@H]1O[C@@H]2O[C@H]3[C@H](O)[C@@H](O)[C@@H](O[C@H]4[C@H](O)[C@@H](O)[C@@H](O[C@H]5[C@H](O)[C@@H](O)[C@@H](O[C@H]6[C@H](O)[C@@H](O)[C@@H](O[C@H]7[C@H](O)[C@@H](O)[C@@H](O[C@H]8[C@H](O)[C@@H](O)[C@@H](O[C@H]9[C@H](O)[C@@H](O)[C@@H](O[C@H]1[C@H](O)[C@H]2O)O[C@@H]9CO)O[C@@H]8CO)O[C@@H]7CO)O[C@@H]6CO)O[C@@H]5CO)O[C@@H]4CO)O[C@@H]3CO [γ, γ-cyclodextrin]
